How the values were obtained:
[1] = test system: normal human melanocytes (NHMs); assay: Accelerated senescence induced in vitro by a chronic H2O2 stress, viability by Alamar Blue; type: cell-based; details: for % relative to the control / average fluorescence: Alamar Blue on D7
Procedure: 1-C-1. Protocol for accelerated senescence induced in vitro by a chronic H2O2 stress:
(According to O. Toussaint, E. E. Medrano and T. von Zglinicki, Experimental Gerontology 2000, 35, 927-945).
The normal human melanocytes (NHMs) were inoculated at D0 at the density of 0.8×10^4 cells/cm^2. After adhesion of the cells (3 h) the active agent studied was added to the culture medium. H2O2 (250 μM) was added to the culture medium over 1 hour, at D1, D2 and D3. In addition, the culture medium was renewed every two days without addition of stress. On D7, the number of viable cells was measured using Alamar Blue (UP669413 UPTIMA, Interchim) according to the instructions of the supplier.

[2] = test system: normal human melanocytes (NHMs); assay: Reactive oxygen species (ROS) generated by an H2O2 stress in cultured normal human melanocytes; type: cell-based; details: NHM pretreated 12 h/18 h, 250 μM H2O2, fluorescence after 15 min; FIG. 1
Procedure: 1-A-1. Protocol for measuring the reactive oxygen species (ROS) generated by an H2O2 stress in cultured normal human melanocytes (NHMs) The normal human melanocytes (NHMs) were inoculated at D0 at the density of 4×10^4 cells/cm^2. At D1, the culture medium was replaced with the 10 μM solution of 6-carboxy-2',7'-dichlorodihydrofluorescein diacetate, di[acetoxymethyl ester] in PBS (H2DCFDA, C2938, Molecular Probes). After 20 min the H2DCFDA solution was replaced with the culture medium. The NHMs were left for 30 min before adding the H2O2 solution (250 μM). The fluorescence was measured after 15 min in a fluoroscan (excitation: 485 nm, emission: 538 nm). The compounds studied were used depending on their properties (concentration, preincubation time). N-Acetylcysteine ([…], Sigma) was used as a reference molecule. The melanocytes were pretreated, 12 h/18 h at 37° C., with the compound studied in the culture medium, before being brought into contact for 20 minutes with H2DCFDA (10 μM in PBS). […] The fluorescence was measured after 15 min in a fluoroscan (excitation: 485 nm, emission: 538 nm). The results represent the crude fluorescence data, from which the autofluorescence values of “blank” cells, expressed in fluorescence units (fu), obtained during a representative experiment, have been deducted.

[3] = (no treatment, NAC, EA), chronic H2O2 250 μM at D1, D2, D3

CC(=O)N[C@@H](CS)C(=O)O [NAC, N-Acetylcysteine, reference compound]
% relative to the control ([1]; (Control, NAC, EA)): 106% | average fluorescence ([1]; (Control, NAC, EA)): 8056.00 | % relative to the control [1, 3]: 38% | average fluorescence [1, 3]: 2869.00

O=c1oc2c(O)c(O)cc3c(=O)oc4c(O)c(O)cc1c4c23 [ellagic acid, 2,3,7,8-tetrahydroxy(1)benzopyrano(5,4,3-CDE)(1)benzopyran-5,10-dione]
% relative to the control ([1]; (Control, NAC, EA)): 97% | average fluorescence ([1]; (Control, NAC, EA)): 7343.67 | % relative to the control [1, 3]: 39% | average fluorescence [1, 3]: 2934.00 | viability after accelerated senescence induced by chronic H2O2 stress ([1]; NHM, H2O2 250 μM at D1, D2, D3, read on D7, FIG. 3): significant increase in viability | reactive oxygen species induced by H2O2 (fluorescence, H2DCFDA) [2]: decrease of the reactive oxygen species
